The supplement of paper PMC10307832

Assays:
Assay in all cases: relative viability (nuclei count vs DMSO), 5 days (fraction); higher = more cells survive
Bleomycin + Lapatinib = compound: CC1=C(N=C(N=C1N)[C@H](CC(=O)N)NC[C@@H](C(=O)N)N)C(=O)N[C@@H]([C@H](C2=CN=CN2)OC3C(C(C(C(O3)CO)O)O)OC4C(C(C(C(O4)CO)O)OC(=O)N)O)C(=O)N[C@H](C)[C@H]([C@H](C)C(=O)N[C@@H]([C@@H](C)O)C(=O)NCCC5=NC(=CS5)C6=NC(=CS6)C(=O)NCCC[S+](C)C)O [Bleomycin] + CS(=O)(=O)CCNCc1ccc(-c2ccc3ncnc(Nc4ccc(OCc5cccc(F)c5)c(Cl)c4)c3c2)o1 [Lapatinib] (partner 2 µM); conditions: main component drawn
Outline: (§1)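 The day after seeding in 1536-well plates, lung cancer cell lines were treated by pin tool with a single drug, or with a fixed anchor-drug dose together with five library-drug doses (not always all listed) in √10 steps. After 5 days, a combined fix-and-stain solution (final 0.05% Triton X-100, 1% formaldehyde, 1 ug/ml Hoechst) was added. Nuclei counted on 4× images gave relative viability as treated counts over vehicle counts, reported as the median of duplicate plates.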

Bleomycin + Pictilisib = compound: CC1=C(N=C(N=C1N)[C@H](CC(=O)N)NC[C@@H](C(=O)N)N)C(=O)N[C@@H]([C@H](C2=CN=CN2)OC3C(C(C(C(O3)CO)O)O)OC4C(C(C(C(O4)CO)O)OC(=O)N)O)C(=O)N[C@H](C)[C@H]([C@H](C)C(=O)N[C@@H]([C@@H](C)O)C(=O)NCCC5=NC(=CS5)C6=NC(=CS6)C(=O)NCCC[S+](C)C)O [Bleomycin] + CS(=O)(=O)N1CCN(Cc2cc3nc(-c4cccc5[nH]ncc45)nc(N4CCOCC4)c3s2)CC1 [Pictilisib] (partner 1 µM); conditions: main component drawn
Outline: as §1

Etoposide + Lapatinib = compound: COc1cc([C@@H]2c3cc4c(cc3[C@@H](O[C@@H]3O[C@@H]5CO[C@@H](C)O[C@H]5[C@H](O)[C@H]3O)[C@H]3COC(=O)[C@H]23)OCO4)cc(OC)c1O [Etoposide] + CS(=O)(=O)CCNCc1ccc(-c2ccc3ncnc(Nc4ccc(OCc5cccc(F)c5)c(Cl)c4)c3c2)o1 [Lapatinib] (partner 2 µM)
Outline: as §1

Etoposide + Alpelisib = compound: COc1cc([C@@H]2c3cc4c(cc3[C@@H](O[C@@H]3O[C@@H]5CO[C@@H](C)O[C@H]5[C@H](O)[C@H]3O)[C@H]3COC(=O)[C@H]23)OCO4)cc(OC)c1O [Etoposide] + Cc1nc(NC(=O)N2CCC[C@H]2C(N)=O)sc1-c1ccnc(C(C)(C)C(F)(F)F)c1 [Alpelisib] (partner 2 µM)
Outline: as §1

Row | Cell Line | relative viability (Bleomycin + Lapatinib; first compound 0.01 µM) | relative viability (Bleomycin + Lapatinib; first compound 0.03162 µM) | relative viability (Bleomycin + Lapatinib; first compound 0.1 µM) | relative viability (Bleomycin + Lapatinib; first compound 0.3162 µM) | relative viability (Bleomycin + Lapatinib; first compound 1 µM) | relative viability (Bleomycin + Pictilisib; first compound 0.01 µM) | relative viability (Bleomycin + Pictilisib; first compound 0.03162 µM) | relative viability (Bleomycin + Pictilisib; first compound 0.1 µM) | relative viability (Bleomycin + Pictilisib; first compound 0.3162 µM) | relative viability (Bleomycin + Pictilisib; first compound 1 µM) | relative viability (Etoposide + Lapatinib; first compound 0.01 µM) | relative viability (Etoposide + Lapatinib; first compound 0.03162 µM) | relative viability (Etoposide + Lapatinib; first compound 0.1 µM) | relative viability (Etoposide + Lapatinib; first compound 0.3162 µM) | relative viability (Etoposide + Lapatinib; first compound 1 µM) | relative viability (Etoposide + Alpelisib; first compound 0.01 µM) | relative viability (Etoposide + Alpelisib; first compound 0.03162 µM) | relative viability (Etoposide + Alpelisib; first compound 0.1 µM) | relative viability (Etoposide + Alpelisib; first compound 0.3162 µM) | relative viability (Etoposide + Alpelisib; first compound 1 µM)
1 | NCI-H1666 | 0.607 | 0.417 | 0.344 | 0.247 | 0.288 | 0.428 | 0.375 | 0.391 | 0.183 | 0.256 | 0.616 | 0.692 | 0.371 | 0.305 | 0.28 | 0.929 | 0.931 | 0.69 | 0.315 | 0.28
2 | LC-2-ad | 0.674 | 0.264 | 0.286 | 0.127 | 0.105 | 0.255 | 0.368 | 0.292 | 0.173 | 0.106 | 0.867 | 0.961 | 0.906 | 0.649 | 0.154 | 0.888 | 0.911 | 0.846 | 0.532 | 0.172
3 | SW 1573 | 1.05 | 0.871 | 0.84 | 0.446 | 0.4 | 0.43 | 0.361 | 0.459 | 0.254 | 0.174 | 1.03 | 1.12 | 0.576 | 0.696 | 0.267 | 0.6 | 0.857 | 0.55 | 0.404 | 0.223
4 | COR-L 105 | 0.279 | 0.379 | 0.345 | 0.268 | 0.294 | 0.412 | 0.43 | 0.406 | 0.278 | 0.276 | 0.271 | 0.393 | 0.26 | 0.343 | 0.356 | 1.08 | 1.06 | 1.12 | 0.807 | 0.56
5 | NCI-H1975 | 0.657 | 0.551 | 0.542 | 0.25 | 0.213 | 0.288 | 0.256 | 0.258 | 0.188 | 0.134 | 0.857 | 1.04 | 0.739 | 0.528 | 0.214 | 0.621 | 0.822 | 0.693 | 0.56 | 0.273
6 | Calu-6 | 0.729 | 0.614 | 0.456 | 0.168 | 0.174 | 0.575 | 0.537 | 0.385 | 0.179 | 0.177 | 1.04 | 0.903 | 1.13 | 0.435 | 0.284 | 0.837 | 1.08 | 0.798 | 0.709 | 0.338
7 | NCI-H1993 | 0.732 | 0.736 | 0.754 | 0.656 | 0.609 | 0.647 | 0.807 | 0.794 | 0.681 | 0.688 | 0.95 | 0.797 | 0.75 | 0.659 | 0.657 | 0.741 | 0.719 | 0.649 | 0.624 | 0.533
8 | SK-LU-1 | 0.745 | 0.858 | 0.709 | 0.35 | 0.347 | 0.434 | 0.638 | 0.474 | 0.352 | 0.282 | 0.752 | 0.949 | 0.375 | 0.261 | 0.202 | 0.781 | 0.875 | 0.648 | 0.299 | 0.233
9 | NCI-H2347 | 0.836 | 0.974 | 0.966 | 0.612 | 0.493 | 0.605 | 0.599 | 0.532 | 0.271 | 0.575 | 1.13 | 0.835 | 0.547 | 0.406 | 0.422 | 1.11 | 0.99 | 0.615 | 0.455 | 0.406
10 | HCC-366 | 0.52 | 0.337 | 0.212 | 0.0246 | 0.0258 | 0.133 | 0.128 | 0.09 | 0.0658 | 0.0477 | 0.978 | 0.882 | 0.382 | 0.0593 | 0.0394 | 0.305 | 0.39 | 0.333 | 0.162 | 0.0382
11 | EMC-BAC-2 | 0.817 | 0.754 | 0.719 | 0.399 | 0.305 | 0.498 | 0.489 | 0.427 | 0.282 | 0.222 | 0.855 | 0.822 | 0.572 | 0.344 | 0.215 | 0.711 | 0.65 | 0.522 | 0.238 | 0.15
12 | NCI-H3122 | 0.931 | 0.996 | 0.842 | 0.654 | 0.528 | 0.642 | 0.591 | 0.577 | 0.243 | 0.36 | 1.09 | 0.998 | 0.97 | 0.91 | 0.451 | 0.748 | 0.752 | 0.728 | 0.595 | 0.402
13 | NCI-H358 | 0.381 | 0.466 | 0.354 | 0.256 | 0.254 | 0.349 | 0.355 | 0.34 | 0.233 | 0.228 | 0.507 | 0.437 | 0.369 | 0.268 | 0.152 | 0.873 | 0.809 | 0.646 | 0.246 | 0.159
14 | NCI-H1944 | 0.533 | 0.41 | 0.355 | 0.242 | 0.151 | 0.284 | 0.282 | 0.271 | 0.204 | 0.184 | 0.76 | 1.01 | 0.499 | 0.363 | 0.226 | 0.742 | 0.969 | 0.645 | 0.564 | 0.249
